Source: ChEMBL document CHEMBL1131172 (J Med Chem, 1998)

Assays:
[1] = target: T1, Bifunctional dihydrofolate reductase-thymidylate synthase (Toxoplasma gondii, UniProt Q07422)
T1 sequence (Q07422 whole entry): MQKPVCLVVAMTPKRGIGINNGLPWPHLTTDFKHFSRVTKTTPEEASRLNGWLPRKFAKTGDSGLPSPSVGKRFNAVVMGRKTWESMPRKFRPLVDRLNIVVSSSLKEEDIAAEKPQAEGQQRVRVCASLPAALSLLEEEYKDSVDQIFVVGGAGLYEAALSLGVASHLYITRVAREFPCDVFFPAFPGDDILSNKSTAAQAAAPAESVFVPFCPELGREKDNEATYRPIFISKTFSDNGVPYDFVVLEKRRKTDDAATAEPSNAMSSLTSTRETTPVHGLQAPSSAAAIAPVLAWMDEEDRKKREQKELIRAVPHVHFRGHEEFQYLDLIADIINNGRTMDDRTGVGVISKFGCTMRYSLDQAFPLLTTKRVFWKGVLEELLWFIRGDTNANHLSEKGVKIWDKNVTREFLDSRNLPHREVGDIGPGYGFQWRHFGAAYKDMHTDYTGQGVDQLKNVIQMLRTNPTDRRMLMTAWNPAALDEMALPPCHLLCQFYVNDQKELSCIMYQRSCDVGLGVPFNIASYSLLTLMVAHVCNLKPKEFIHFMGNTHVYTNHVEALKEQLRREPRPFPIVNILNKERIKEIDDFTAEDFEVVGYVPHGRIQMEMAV
Description: Inhibitory activity against dihydrofolate reductase (DHFR) from Toxoplasma gondii

Dihydrofolate reductase [2] = target: T2, Dihydrofolate reductase (Rattus norvegicus, UniProt Q920D2)
T2 sequence (Q920D2 whole entry): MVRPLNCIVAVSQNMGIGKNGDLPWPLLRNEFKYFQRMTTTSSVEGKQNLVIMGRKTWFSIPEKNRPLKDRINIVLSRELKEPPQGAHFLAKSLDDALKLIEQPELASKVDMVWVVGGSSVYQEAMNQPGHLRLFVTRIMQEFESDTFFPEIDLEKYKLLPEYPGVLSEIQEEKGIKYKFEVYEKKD
Description: Inhibitory activity against dihydrofolate reductase (DHFR) from rat liver

Dihydrofolate reductase [3] = target: T3, Dihydrofolate reductase (Pneumocystis carinii, UniProt P16184)
T3 sequence (P16184 whole entry): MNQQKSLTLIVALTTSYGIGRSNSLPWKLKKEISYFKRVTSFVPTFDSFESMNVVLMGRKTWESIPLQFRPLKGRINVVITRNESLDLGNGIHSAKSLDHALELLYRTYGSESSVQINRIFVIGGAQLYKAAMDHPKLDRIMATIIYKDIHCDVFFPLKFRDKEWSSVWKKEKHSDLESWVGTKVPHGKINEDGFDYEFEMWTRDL
Description: Inhibitory activity against dihydrofolate reductase (DHFR) from Pneumocystis carinii

SMILES	IC50 [1]	IC50 (Dihydrofolate reductase [2])	IC50 (Dihydrofolate reductase [3])
COc1cc(CNc2ccc3nc(N)nc(N)c3n2)cc(OC)c1OC	490 nM	1400 nM	
COc1ccccc1Sc1ccc2nc(N)nc(N)c2n1	58 nM	230 nM	2200 nM
CN(c1ccc2nc(N)nc(N)c2n1)c1cccc2ccccc12	2100 nM	3300 nM	
COc1ccccc1S(=O)(=O)c1ccc2nc(N)nc(N)c2n1	210 nM	1400 nM	3200 nM
COc1ccc(S(=O)(=O)c2ccc3nc(N)nc(N)c3n2)cc1	1000 nM	2000 nM	
